Measured values from patent US12338219B2, “Antimalarial agents” (Merck Sharp & Dohme LLC, priority 2019, dated 2025).

What follows are compounds tested on parasites (ring stage parasites, parasite growth) (assay: Parasite LDH growth assay (Parasite Assay), antiparasite potency). Conditions: 72 h, 72 hours growth, LDH readout; Table 3.
Type: cell-based
Summary of the method: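 Ring-stage culture was adjusted to 0.7% parasitemia and 2% haematocrit in bicarbonate-buffered RPMI-Hepes with heat-inactivated human serum and 0.5% albumax, then added to compound. Plates were incubated 72 h at 37 °C in gassed humidified boxes, frozen at −80 °C overnight and thawed, and growth was read by LDH assay.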

Row | SMILES | EC50 [nM]
1 | CC1(C)CC(=O)N([C@@H](c2cncc(Cl)c2)[C@@H]2C[C@H]2C(=O)N[C@H]2C[C@H](C(F)(F)F)Oc3ccccc32)C(=N)N1 [Example 60B] | 100
2 | CC[C@]1(C)CC(=O)N([C@H](CCOC)[C@@H]2C[C@H]2C(=O)N[C@@H]2c3ccccc3OC(C)(C)[C@H]2O)C(=N)N1 [Example 61] | 6.9
3 | CC[C@]1(C)CC(=O)N([C@@H](CCOC)[C@@H]2C[C@H]2C(=O)N[C@H]2C[C@H](C(F)(F)F)Oc3ccccc32)C(=N)N1 [Example 62A] | 31
4 | CC[C@]1(C)CC(=O)N([C@H](CCOC)[C@@H]2C[C@H]2C(=O)N[C@H]2C[C@H](C(F)(F)F)Oc3ccccc32)C(=N)N1 [Example 62B] | 0.8
5 | COCC[C@H]([C@@H]1C[C@H]1C(=O)N[C@@H]1CC(C)(C)Oc2cc(OC)ccc21)N1C(=N)NC(C)(C)CC1=O [Example 70A] | 77
6 | COCC[C@H]([C@@H]1C[C@H]1C(=O)N[C@H]1CC(C)(C)Oc2cc(OC)ccc21)N1C(=N)NC(C)(C)CC1=O [Example 70B] | 19
7 | CC1(C)CC(=O)N(C[C@@H]2C[C@H]2C(=O)N[C@H]2CC(C)(C)Oc3ccc(F)cc32)C(=N)N1 [Example 71] | 125
8 | COCC[C@H]([C@@H]1C[C@H]1C(=O)N[C@@H]1CC(C)(C)Oc2ccc(F)cc21)N1C(=N)NC(C)(C)CC1=O [Example 72A] | 11
9 | COCC[C@H]([C@@H]1C[C@H]1C(=O)N[C@H]1CC(C)(C)Oc2ccc(F)cc21)N1C(=N)NC(C)(C)CC1=O [Example 72B] | 2.5
10 | COc1cccc2c1[C@@H](NC(=O)[C@@H]1C[C@H]1CN1C(=N)NC(C)(C)CC1=O)CC(C)(C)O2 [Example 73] | 192
11 | COCC[C@H]([C@@H]1C[C@H]1C(=O)N[C@@H]1CC(C)(C)Oc2cccc(OC)c21)N1C(=N)NC(C)(C)CC1=O [Example 74A] | 33
12 | COCC[C@H]([C@@H]1C[C@H]1C(=O)N[C@H]1CC(C)(C)Oc2cccc(OC)c21)N1C(=N)NC(C)(C)CC1=O [Example 74B] | 3.1
13 | CCC1(C)CC(NC(=O)[C@@H]2C[C@H]2[C@@H](CCOC)N2C(=N)NC(C)(C)CC2=O)c2ccccc2O1 (stereo partly shown) [Example 75A] | 8.2
14 | COCC[C@H]([C@@H]1C[C@H]1C(=O)NC1CC(C)(C)Oc2cc(F)ccc21)N1C(=N)NC(C)(C)CC1=O (stereo partly shown) [Example 76A] | 17
15 | CC1(C)CC(=O)N([C@H](c2cccnc2)[C@@H]2C[C@H]2C(=O)NC2CC(C)(C)Oc3cc(F)ccc32)C(=N)N1 (stereo partly shown) [Example 77A] | 1.7
16 | CCC1(C)C[C@H](NC(=O)[C@@H]2C[C@H]2CN2C(=N)NC(C)(C)CC2=O)c2ccccc2O1 (stereo partly shown) [Example 78] | 300
17 | CC(C)C1(C)CC(NC(=O)[C@@H]2C[C@H]2CN2C(=N)NC(C)(C)CC2=O)c2ccccc2O1 (stereo partly shown) [Example 79A] | 255
18 | COCC[C@H]([C@@H]1C[C@H]1C(=O)N[C@H]1CC(C)(C)Oc2cc(C)ccc21)N1C(=N)NC(C)(C)CC1=O [Example 83A] | 6.6
19 | COCC[C@H]([C@@H]1C[C@H]1C(=O)N[C@@H]1CC(C)(C)Oc2cc(C)ccc21)N1C(=N)NC(C)(C)CC1=O [Example 83B] | 26
20 | Cc1ccc2c(c1)OC(C)(C)C[C@@H]2NC(=O)[C@@H]1C[C@H]1CN1C(=N)NC(C)(C)CC1=O [Example 84] | 289
21 | Cc1ccc2c(c1)OC(C)(C)C[C@H]2NC(=O)[C@@H]1C[C@H]1[C@@H](c1cccnc1)N1C(=N)NC(C)(C)CC1=O [Example 85A] | 2.4
22 | Cc1ccc2c(c1)OC(C)(C)C[C@@H]2NC(=O)[C@@H]1C[C@H]1[C@@H](c1cccnc1)N1C(=N)NC(C)(C)CC1=O [Example 85B] | 0.9
23 | CC1(C)CC(=O)N([C@H](c2cccnc2)[C@@H]2C[C@H]2C(=O)NC2CC(C)(C)Oc3cccc(F)c32)C(=N)N1 (stereo partly shown) [Example 86A] | 2.2
24 | CC1(C)CC(=O)N(C[C@@H]2C[C@H]2C(=O)N[C@H]2CC(C)(C)Oc3cccc(F)c32)C(=N)N1 [Example 87] | 160
25 | COCC[C@H]([C@@H]1C[C@H]1C(=O)N[C@H]1CC(C)(C)Oc2cccc(F)c21)N1C(=N)NC(C)(C)CC1=O [Example 88A] | 5.2
26 | COCC[C@H]([C@@H]1C[C@H]1C(=O)N[C@@H]1CC(C)(C)Oc2cccc(F)c21)N1C(=N)NC(C)(C)CC1=O [Example 88B] | 10

Row | SMILES | EC50 [nM]
27 | COCC[C@H]([C@@H]1C[C@H]1C(=O)N[C@H]1CC(C)(C)Oc2cc(Cl)ccc21)N1C(=N)NC(C)(C)CC1=O [Example 89A] | 5.6
28 | COCC[C@H]([C@@H]1C[C@H]1C(=O)N[C@@H]1CC(C)(C)Oc2cc(Cl)ccc21)N1C(=N)NC(C)(C)CC1=O [Example 89B] | 22
29 | CC1(C)CC(=O)N(C[C@@H]2C[C@H]2C(=O)N[C@H]2CC(C)(C)Oc3cc(Cl)ccc32)C(=N)N1 [Example 90] | 225
30 | CC1(C)CC(=O)N([C@H](c2cccnc2)[C@@H]2C[C@H]2C(=O)N[C@H]2CC(C)(C)Oc3cc(Cl)ccc32)C(=N)N1 [Example 91A] | 0.8
31 | CC1(C)CC(=O)N([C@H](c2cccnc2)[C@@H]2C[C@H]2C(=O)N[C@@H]2CC(C)(C)Oc3cc(Cl)ccc32)C(=N)N1 [Example 91B] | 2.7
32 | CCC1(CC)CC(NC(=O)[C@@H]2C[C@H]2[C@@H](CCOC)N2C(=N)NC(C)(C)CC2=O)c2ccccc2O1 (stereo partly shown) [Example 92A] | 7.6
33 | CC1(C)CC(=O)N([C@H](c2cccnc2)[C@@H]2C[C@H]2C(=O)NC2CC(C)(C)Oc3c(F)cccc32)C(=N)N1 (stereo partly shown) [Example 93A] | 3.3
34 | CC1(C)CC(=O)N([C@H](c2cccnc2)[C@@H]2C[C@H]2C(=O)NC2CC(C)(C)Oc3c(Cl)cc(Cl)cc32)C(=N)N1 (stereo partly shown) [Example 94A] | 0.9
35 | CC1(C)CC(=O)N(C[C@@H]2C[C@H]2C(=O)N[C@H]2CC(C)(C)Oc3ccc(Cl)cc32)C(=N)N1 [Example 95] | 110
36 | COc1cccc2c1C(NC(=O)[C@@H]1C[C@H]1[C@@H](c1cccnc1)N1C(=N)NC(C)(C)CC1=O)CC(C)(C)O2 (stereo partly shown) [Example 96A] | 2.7
37 | CC1(C)CC(=O)N(C[C@@H]2C[C@H]2C(=O)NC2CC(C)(C)Oc3c(Cl)cc(Cl)cc32)C(=N)N1 (stereo partly shown) [Example 97A] | 180
38 | CC1(C)CC(=O)N(C[C@@H]2C[C@H]2C(=O)N[C@H]2CC(C)(C)Oc3c(C(F)(F)F)ccc(F)c32)C(=N)N1 [Example 99] | 130
39 | CC1(C)CC(=O)N(C[C@@H]2C[C@H]2C(=O)N[C@H]2CC(C)(C)Oc3ccc(C(F)(F)F)cc32)C(=N)N1 [Example 100] | 170
40 | COCC[C@H]([C@@H]1C[C@H]1C(=O)N[C@H]1CC(C)(C)Oc2ccc(Cl)cc21)N1C(=N)NC(C)(C)CC1=O [Example 101] | 2.9
41 | CC[C@]1(C)CC(=O)N([C@H](c2cncc(F)c2)[C@@H]2C[C@H]2C(=O)N[C@@H]2c3ccccc3OCC2(C)C)C(=N)N1 [Example 102A] | 0.8
42 | CC[C@]1(C)CC(=O)N([C@@H](c2cncc(F)c2)[C@@H]2C[C@H]2C(=O)N[C@@H]2c3ccccc3OCC2(C)C)C(=N)N1 [Example 102B] | 2.5
43 | COCC[C@H]([C@@H]1C[C@H]1C(=O)NC1CC(C)(C)Oc2c(Cl)cc(Cl)cc21)N1C(=N)NC(C)(C)CC1=O (stereo partly shown) [Example 106A] | 7.4
44 | COCC[C@H]([C@@H]1C[C@H]1C(=O)N[C@H]1CC(C)(C)Oc2cccc(OC(F)(F)F)c21)N1C(=N)NC(C)(C)CC1=O [Example 107A] | 2.1
45 | COCC[C@H]([C@@H]1C[C@H]1C(=O)N[C@@H]1CC(C)(C)Oc2cccc(OC(F)(F)F)c21)N1C(=N)NC(C)(C)CC1=O [Example 107B] | 11
46 | COCC[C@H]([C@@H]1C[C@H]1C(=O)N[C@@H]1CC(C)(C)Oc2ccc(C(F)(F)F)cc21)N1C(=N)NC(C)(C)CC1=O [Example 110A] | 21
47 | COCC[C@H]([C@@H]1C[C@H]1C(=O)N[C@H]1CC(C)(C)Oc2ccc(C(F)(F)F)cc21)N1C(=N)NC(C)(C)CC1=O [Example 110B] | 7.2
48 | COCC[C@H]([C@@H]1C[C@H]1C(=O)NC1CC(C)(C)Oc2c(F)cccc21)N1C(=N)NC(C)(C)CC1=O (stereo partly shown) [Example 111A] | 24
49 | COCC[C@H]([C@@H]1C[C@H]1C(=O)NC1CC(C)(C)Oc2c(Cl)cccc21)N1C(=N)NC(C)(C)CC1=O (stereo partly shown) [Example 112A] | 18
50 | COCC[C@H]([C@@H]1C[C@H]1C(=O)N[C@@H]1CC(C)(C)Oc2c(F)cc(F)cc21)N1C(=N)NC(C)(C)CC1=O [Example 113A] | 19
51 | COCC[C@H]([C@@H]1C[C@H]1C(=O)N[C@H]1CC(C)(C)Oc2c(F)cc(F)cc21)N1C(=N)NC(C)(C)CC1=O [Example 113B] | 7.5

Same assay, conditions: 72 hours growth, LDH readout; Table 3

Row | SMILES | EC50 [nM]
52 | COCC[C@H]([C@@H]1C[C@H]1C(=O)NC1CC(C)(C)Oc2cc(F)ccc21)N1C(=N)NC(C)(C)CC1=O (stereo partly shown) [Example 76B] | 15
53 | CC1(C)CC(=O)N([C@H](c2cccnc2)[C@@H]2C[C@H]2C(=O)NC2CC(C)(C)Oc3cc(F)ccc32)C(=N)N1 (stereo partly shown) [Example 77B] | 2.3
54 | CC1(C)CC(=O)N([C@H](c2cccnc2)[C@@H]2C[C@H]2C(=O)NC2CC(C)(C)Oc3cccc(F)c32)C(=N)N1 (stereo partly shown) [Example 86B] | 2.8
55 | CCC1(CC)CC(NC(=O)[C@@H]2C[C@H]2[C@@H](CCOC)N2C(=N)NC(C)(C)CC2=O)c2ccccc2O1 (stereo partly shown) [Example 92B] | 7.2
56 | CC1(C)CC(=O)N([C@H](c2cccnc2)[C@@H]2C[C@H]2C(=O)NC2CC(C)(C)Oc3c(F)cccc32)C(=N)N1 (stereo partly shown) [Example 93B] | 2.4
57 | COc1cccc2c1C(NC(=O)[C@@H]1C[C@H]1[C@@H](c1cccnc1)N1C(=N)NC(C)(C)CC1=O)CC(C)(C)O2 (stereo partly shown) [Example 96B] | 3.3
58 | CC1(C)CC(=O)N(C[C@@H]2C[C@H]2C(=O)NC2CC(C)(C)Oc3c(Cl)cc(Cl)cc32)C(=N)N1 (stereo partly shown) [Example 97B] | 220
59 | COCC[C@H]([C@@H]1C[C@H]1C(=O)NC1CC(C)(C)Oc2c(Cl)cc(Cl)cc21)N1C(=N)NC(C)(C)CC1=O (stereo partly shown) [Example 106B] | 10
60 | COCC[C@H]([C@@H]1C[C@H]1C(=O)NC1CC(C)(C)Oc2c(F)cccc21)N1C(=N)NC(C)(C)CC1=O (stereo partly shown) [Example 111B] | 15
61 | COCC[C@H]([C@@H]1C[C@H]1C(=O)NC1CC(C)(C)Oc2c(Cl)cccc21)N1C(=N)NC(C)(C)CC1=O (stereo partly shown) [Example 112B] | 9.4
